Consider 1 compound from US20100184704A1, “USE OF THE PEPTIDE GLY-ARG-GLY-ASP-ASN-PRO AS A THERAPEUTIC AGENT” (priority 2007, published 2010).

Molecules are shown by their SMILES. Where a SMILES comes first, the peptide text is derived from it.

This assay deals with drug-resistant Mycobacterium tuberculosis. The following applies: 5 micrograms per ml.

`N=C(N)NCCC[C@H](NC(=O)CN)C(=O)NCC(=O)N[C@@H](CC(=O)O)C(=O)N[C@@H](CC(N)=O)C(=O)N1CCC[C@H]1C(=O)O` [Gly-Arg-Gly-Asp-Asn-Pro, Gly-Arg-Gly-Asp-Asn-Pro-OH] (H-GRGDNP-OH): the % inhibition (commonly the drop in the measured response relative to a control, in per cent) worked out at 0.0%.
